Source: US20050244472A1, “Intraocular drug delivery systems containing excipients with reduced toxicity and related methods” (Allergan, Inc., priority 2004, published 2005)
Read-outs that look alike come from different tables or passages of the source.

How the values were obtained:
ARPE-19 cells [1] = type: cell-based
Description: Cell morphology was visualized using light microscopy. Cell morphology observation using light microscopy permits determination of (i) cell number and density and (ii) whether or not cells in contact with an excipient agent display modified phenotype compared to a non-treated population of cells.
Cell morphology was analyzed in parallel by semi-quantitative scoring ranging from 5 to 1, from basal to lethal phenotype respectively, as shown in FIG. 23.
More specifically, cells were removed from an incubator for examination. Morphological shape of cells was visualized using a light microscope and CCD camera. Every 3 wells of a given concentration was observed through image analysis software. Then, a representative photograph describing the average appearance of cells was saved. The supernatant was either, kept for further predefined experiments to perform, or removed using vacuum-pump.
Resulting semi-quantitative scoring is represented as a function of time course and dose response. Score 5: wild type phenotype of non-treated cells, 100% confluent adherent cells. This phenotype very much vary following post-seeding time. For example, at confluence ARPE-19 cells at 1 day appear well defined with visible outer membrane and dark grey cytoplasm. After 3 days of confluence, limits between cells become less visible and cells adopt a more hexagonal shape and constitute an epithelium-like uniform dense structure. Score 4: density<100%. Cell shape has changed, some spaces are present between cells, few cells possibly detached. Score 3: […]. Spaces are sometimes present among cells, areas appears confluent while in others, cells detached. General cell shape starts showing non negligible alterations. Score 2: Cell density<50%. Cells adopt exclusively stressed appearance, presence of mass dead floating cells. Score 1: Cell density<10%. Presence of almost exclusively dead cells.
Based on quotation, each condition of the applied compound was given a score which allow to a morphology evolution profile to be prepared, ie. cell morphology as a function of compound concentration and time of exposure. […]

[2] = pH of excipient-containing incubating solutions; type: physicochemical
Description: (§1) For each concentration of tested compound, pH and osmolarity parameters were measured.

ARPE-19 cells [3] = assay: in vitro
Excerpt: (§2) Cell viability and cell morphology were examined to evaluate the toxicity of excipients on retinal pigment epithelial cells. The human retina cell line used in these experiments is the ARPE-19 cell line (human adult-derived retinal pigmented epithelial cells). […] They form tight-junctions with transepithelial resistance of monolayers (Dunn K C et al., supra). From a molecular standpoint, it appears that ARPE-19 express a huge pattern of genes similar to those expressed by human RPE from fresh explant which could account for their physiological function (Klimanskaya I. et al., “Derivation and comparative assessment of retinal pigment epithelium from human embryonic stem cells using transcriptomics”, Cloning and Stem Cells, 2004, 6(3):217-45).
(§3) ARPE-19 cells are widely used as a retinal model that resemble physiological properties of RPE cells. Similar methods of culturing ARPE-19 cells and cytotoxicity assays can be found in Yeung et al., “Cytotoxicity of triamcinolone on cultured human retinal pigment epithelial cells: comparison with dexamethasone and hydrocortisone”, Jpn J. Ophthalmol, 2004; 48:236-242. Cell viability and cell morphology were examined using conventional colormetric and visual methods. Viability and morphology measurements were obtained at 24 hours, 48 hours, and 72 hours after exposure to an excipient composition.
(§4) To assess cell viability, mitochondrial metabolism was quantified through conventional colorometric assays (i.e., the MTT assay). This colorimetric assay utilizes 3-(4,5-dimethylthiazol-2-yl)-2,5-diphenyltetrazolium bromide (MTT) and correlates mitochondrial metabolism and cell viability through measurement of dehydrogenase activity which converts a substrate into crystal. More specifically, the assay measures the activity of living cells through mitochondrial dehydrogenases. When dissolved in culture cell medium, MTT solution appears dark orange. Mitochondrial dehydrogenases of viable cells degrade MTT by cleaving the tetrazolium ring yielding to formation of a purple formazan crystal, which is insoluble in water. Crystals are subsequently dissolved in isopropanol solution. A resulting purple solution is spectrophotometrically measured. Cell viability is relative to amount of formazan and calculated as a percentage of remaining treated compared to non-treated cells.
(§5) Results from the MTT assay were expressed as a percentage of cell viability calculated using the following equation: % cell viability=ODtest/ODcontrol×100.
(§6) For each experiment, one concentration was performed in triplicate. Each point was spectrophotometrically read twice. Average of readings was calculated, then average from these 3 values was determined.
(§7) After 3 experiments were independently completed under the same conditions, a graph was plotted with cell viability expressed as a function of concentration (dose response) and for various incubation period (time course). The IC50 was then estimated based on the graphed data.
(§8) More specifically, cell density in 24-multiwell plates was observed on the day of the experiment to check if confluence of the cells was reached. Aliquots of MTT concentrated solutions were removed from a freezer at −20° C. and thawed at room temperature. Cell medium was warmed at 37° C. before use. Appropriated tubes for diluting compounds were prepared. Higher concentrations of each excipient agent was prepared. Serial dilution was then performed in cell medium (DMEM:F12+10% FBS).
(§9) Cell culture medium in the 24-well plate was removed using vacuum-pump. Cells were then stimulated with 0.5 ml final volume for each concentration of one given excipient agent. Distribution of the excipient-containing solution was performed using automated pipet-aid in sterile environment (under PSM) or not depending on time of compounds and duration of incubation.
(§10) After stimulation, cells were replaced in a CO2 incubator for the required time of exposure.

in vitro = conditions: human
Excerpt: as §2, §3, §4, §5, §6, §7, §8, §9, §10

[4] = Osmolarity of excipient-containing incubating solutions; type: physicochemical
Description: Osmolarity was measured using osmometer type 13/13DR from Roebling (Berlin, GR).
as §1

[5] = 0.05% excipient dilution in culture medium
[6] = 0.1% excipient dilution in culture medium
[7] = 0.5% excipient dilution in culture medium
[8] = 1% excipient dilution in culture medium
[9] = 2% excipient dilution in culture medium
[10] = […] excipient dilution in culture medium

pH [2, 5]: 8 | pH [2, 6]: 8.1 | pH [2, 7]: 8 | pH [2, 8]: 7.9 | pH [2, 9]: 8 | pH [2, 10]: 7.9 | mOsm [4, 5]: 293 mOsm | mOsm [4, 6]: 307 mOsm | mOsm [4, 7]: 347 mOsm | mOsm [4, 8]: 398 mOsm | mOsm [4, 9]: 493 mOsm | mOsm [4, 10]: 444 mOsm
Compound: OCc1ccccc1 [Benzyl alcohol, benzyl alcohol]
living cells (morphology observation) (ARPE-19 cells [1]): no living cells survived | Morphology limit concentration (%) (ARPE-19 cells [1]; human): 0.07% | Cell Morphology score, Mean (ARPE-19 cells [1]; human, 24 h, 0.05 %): 3.3 | Cell Morphology score, Mean (ARPE-19 cells [1]; human, 24 h, 0.1 %): 3.0 | Cell Morphology score, Mean (ARPE-19 cells [1]; human, 24 h, 0.5 %): 1.0 | Cell Morphology score, Mean (ARPE-19 cells [1]; human, 24 h, 1 %): 1.0 | Cell Morphology score, Mean (ARPE-19 cells [1]; human, 24 h, 2 %): 1.0 | Cell Morphology score, Mean (ARPE-19 cells [1]; human, 24 h, […]): 1.0 | Cell Morphology score, Mean (ARPE-19 cells [1]; human, 48 h, 0.05 %): 3.7 | Cell Morphology score, Mean (ARPE-19 cells [1]; human, 48 h, 0.1 %): 3.0 | Cell Morphology score, Mean (ARPE-19 cells [1]; human, 48 h, 0.5 %): 1.0 | Cell Morphology score, Mean (ARPE-19 cells [1]; human, 48 h, 1 %): 1.0 | Cell Morphology score, Mean (ARPE-19 cells [1]; human, 48 h, 2 %): 1.0 | Cell Morphology score, Mean (ARPE-19 cells [1]; human, 48 h, […]): 1.0 | Cell Morphology score, Mean (ARPE-19 cells [1]; human, 72 h, 0.05 %): 3.3 | Cell Morphology score, Mean (ARPE-19 cells [1]; human, 72 h, 0.1 %): 3.0 | Cell Morphology score, Mean (ARPE-19 cells [1]; human, 72 h, 0.5 %): 1.0 | Cell Morphology score, Mean (ARPE-19 cells [1]; human, 72 h, 1 %): 1.0 | Cell Morphology score, Mean (ARPE-19 cells [1]; human, 72 h, 2 %): 1.0 | Cell Morphology score, Mean (ARPE-19 cells [1]; human, 72 h, […]): 1.0 | overall cytotoxicity to ARPE-19 cells (conclusion in words) (ARPE-19 cells [3]): very aggressive impact | cytotoxicity at 0.05 % (in vitro): ~45% | viability at 24 h, 0.05 % (in vitro; Cell Viability): 56.1% | viability at 24 h, 0.1 % (in vitro; Cell Viability): 48% | viability at 48 h, 0.05 % (in vitro; Cell Viability): 60.9% | viability at 48 h, 0.1 % (in vitro; Cell Viability): 49% | viability at 48 h, 0.5 % (in vitro; Cell Viability): 1.2% | viability at 72 h, 0.05 % (in vitro; Cell Viability): 57.5% | viability at 72 h, 0.1 % (in vitro; Cell Viability): 49.1% | viability at 24 h, 0.05 % (in vitro; Cell Viability, Mean (%)): 55.7% | viability at 24 h, 0.1 % (in vitro; Cell Viability, Mean (%)): 45.9% | viability at 24 h, 0.5 % (in vitro; Cell Viability, Mean (%)): 13.3% | viability at 24 h, 1 % (in vitro; Cell Viability, Mean (%)): 0.4% | viability at 24 h, 2 % (in vitro; Cell Viability, Mean (%)): 0.3% | viability at 24 h, […] (in vitro; Cell Viability, Mean (%)): 0.4% | viability at 48 h, 0.05 % (in vitro; Cell Viability, Mean (%)): 57.3% | viability at 48 h, 0.1 % (in vitro; Cell Viability, Mean (%)): 42% | viability at 48 h, 0.5 % (in vitro; Cell Viability, Mean (%)): 1.5% | viability at 48 h, 1 % (in vitro; Cell Viability, Mean (%)): 1.5% | viability at 48 h, 2 % (in vitro; Cell Viability, Mean (%)): 1.2% | viability at 48 h, […] (in vitro; Cell Viability, Mean (%)): 1.3% | viability at 72 h, 0.05 % (in vitro; Cell Viability, Mean (%)): 53.7% | viability at 72 h, 0.1 % (in vitro; Cell Viability, Mean (%)): 42.2% | viability at 72 h, 0.5 % (in vitro; Cell Viability, Mean (%)): 1.1% | viability at 72 h, 1 % (in vitro; Cell Viability, Mean (%)): 0.9% | viability at 72 h, 2 % (in vitro; Cell Viability, Mean (%)): 1% | viability at 72 h, […] (in vitro; Cell Viability, Mean (%)): 1%
